SMILES strings stand for the structures.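 Following 48 hours of exposure in 96-well plates, responses at five concentrations were used to interpolate endpoints linearly. The concentration for 50% growth inhibition is given as GI50. TGI denotes the concentration required for complete inhibition of growth.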

Among the test systems are EKVX NSCLC; HCT-116 colon; HCT-15 colon; M14 melanoma; MCF7 breast; SF-539 CNS; SNB-75 CNS; T-47D breast; HL-60(TB) leukemia; HS 578T breast.
Assay in all cases: NCI anticancer screen, dose series, 48 h

As for `CC1(C)CC[C@]2(C(=O)n3ccnc3)CC[C@]3(C)[C@H](C(=O)C=C4[C@@]5(C)C=C(C#N)C(=O)C(C)(C)[C@@H]5CC[C@]43C)[C@@H]2C1`, the GI50 with EKVX NSCLC is 141 nM; in the test on HCT-116 colon, < 0.0112 µM; with HCT-15 colon it was < 10 nM; in the test on M14 melanoma, 0.0287 µM; in the test on MCF7 breast, < 10 nM; with SF-539 CNS, < 11.4 nM. In addition, the values for the GI50 in the test with SNB-75 CNS and in the test with T-47D breast were 23.6 nM and 44.6 nM, respectively. The TGI with EKVX NSCLC was 0.545 µM; in the test on HCT-116 colon it was 0.0273 µM; in the test with HCT-15 colon, 0.0204 µM; with M14 melanoma, 0.196 µM; in the test with MCF7 breast it was > 100 µM; with SF-539 CNS, < 0.0336 µM. The TGI in the test with SNB-75 CNS was 0.187 µM; in the test with T-47D breast it was 0.395 µM.
Regarding `COC(=O)CCC(=O)CC(=O)C(=O)Nc1ccc(F)cc1`, the TGI in the test with EKVX NSCLC, with HCT-116 colon, in the test on HCT-15 colon, with M14 melanoma, in the test with SF-539 CNS and in the test with SNB-75 CNS was > 100 µM each time.
In the case of `[N-]=[N+]=Nc1ccccc1-[n+]1noc([O-])c1Br`, the TGI with EKVX NSCLC, with HCT-116 colon, with HCT-15 colon, in the test on HL-60(TB) leukemia, in the test on M14 melanoma and in the test on SF-539 CNS was > 100 µM throughout. Moreover, the TGI in the test with SNB-75 CNS was > 100 µM.
With `COCC1C(=O)c2cc3c(cc2C12C=CC1(C=C2)OCCO1)OCO3` (stereo not given), the TGI in the test with EKVX NSCLC was determined as 30.4 µM; with HCT-116 colon, 6.77 µM; in the test on HCT-15 colon it was 2.96 µM; with HL-60(TB) leukemia, 5.97 µM; in the test with M14 melanoma, 12.6 µM; in the test on SF-539 CNS, 29.3 µM. Moreover, the TGI in the test with SNB-75 CNS was 28.9 µM.
On to `CNc1nnnn1C1OC(CO)C(O)C1O` (stereo not given), for which the TGI in the test on EKVX NSCLC, with HCT-116 colon, in the test with HCT-15 colon, with M14 melanoma, in the test with SF-539 CNS and with SNB-75 CNS was > 100 µM throughout.
`COC(=O)CSc1ccccc1`: the TGI with EKVX NSCLC, in the test on HCT-116 colon, in the test with HCT-15 colon, in the test with HL-60(TB) leukemia, in the test on M14 melanoma and in the test with SF-539 CNS was > 100 µM throughout. Moreover, in the test on SNB-75 CNS, the TGI was > 100 µM.
Consider `N#Cc1ccc(/C=N\N2C(=O)c3ccccc3C2=O)cc1`, for which the TGI in the test with EKVX NSCLC, in the test with HCT-116 colon, in the test on HCT-15 colon, in the test on HL-60(TB) leukemia, with M14 melanoma and in the test with SF-539 CNS was > 100 µM throughout. In addition, the TGI in the test with SNB-75 CNS was > 100 µM.
Turning to `Cn1c(=O)nc2n(-c3ccc(F)cc3)c3ccccc3nc-2c1=O`, the TGI is 32 µM in the test with EKVX NSCLC; 37.9 µM in the test with HCT-116 colon; 37.4 µM with HCT-15 colon; 67.3 µM in the test with M14 melanoma; 46.5 µM in the test with SF-539 CNS; 91.6 µM in the test on SNB-75 CNS.
For the compound `COc1cc(-c2cc(/C=C/C(=O)c3ccc4c(c3)OCO4)[nH]n2)cc(OC)c1OC`, the GI50 in the test on HCT-15 colon is 2120 nM; in the test on HL-60(TB) leukemia it was 2170 nM; in the test with HS 578T breast, 3.71 µM; in the test with M14 melanoma, 3.86 µM; in the test on SF-539 CNS it was 2070 nM; with T-47D breast it was 2510 nM. In addition, the TGI in the test on HCT-15 colon was 7.19 µM; with HL-60(TB) leukemia it was 6.36 µM; with HS 578T breast it was 78.7 µM; in the test with M14 melanoma, > 100 µM; with SF-539 CNS, 5.73 µM; with T-47D breast, 17 µM.
On to `COc1cc(C2c3cc4c(cc3[C@H](NC(=O)c3cccs3)C3COC(=O)[C@H]23)OCO4)cc(OC)c1OC` (stereo not given in full), for which the TGI is > 100 µM in the test on EKVX NSCLC; 1.05 µM in the test on HCT-116 colon; < 0.0251 µM with HL-60(TB) leukemia; 33.7 µM in the test with M14 melanoma; 31.3 µM in the test with MCF7 breast; < 0.0141 µM in the test on SF-539 CNS. In addition, the TGI in the test on SNB-75 CNS and in the test with T-47D breast was > 100 µM in each case.
For `COc1ccc2nc3cc(Cl)ccc3c(NCCC(=O)OCC(O)C(O)C(O[C@H](C)C(=O)NC(C)C(=O)NC(CCC(N)=O)C(=O)OCc3ccccc3)C(C=O)NC(C)=O)c2c1` (stereo not given in full), the TGI is 36.9 µM in the test with EKVX NSCLC; 31.9 µM in the test with HCT-116 colon; 52.4 µM in the test on HCT-15 colon; 56.3 µM in the test with HL-60(TB) leukemia; 35.5 µM in the test with M14 melanoma; 37.1 µM with SF-539 CNS. The compound also had a TGI with SNB-75 CNS of 31.7 µM.
`COc1ccc(C(=O)C(c2ccc(OC)cc2)C2C(=O)Oc3ccccc32)cc1` (stereo not given): the GI50 in the test with EKVX NSCLC is > 100000 nM; in the test with HCT-116 colon, > 100 µM; with HCT-15 colon, > 100000 nM; with M14 melanoma, > 100 µM; in the test on SF-539 CNS, > 100000 nM; with SNB-75 CNS, > 100000 nM. Also, the TGI in the test with EKVX NSCLC, with HCT-116 colon, in the test with HCT-15 colon, in the test on M14 melanoma, with SF-539 CNS and in the test with SNB-75 CNS was > 100 µM throughout.
In the case of `COc1ccc(C(=O)/C(=N/Nc2ccccc2)c2ccc(OC)cc2)cc1`, the TGI in the test on EKVX NSCLC, in the test on HCT-116 colon, with HCT-15 colon, with SF-539 CNS and with SNB-75 CNS was > 100 µM each time.
Consider `COc1ccc(NC(=O)CC/C(CC(=O)c2ccccc2Cl)=N\Nc2nnc(C)n2N)cc1`, for which the TGI in the test with EKVX NSCLC, with HCT-116 colon, in the test on HCT-15 colon, with HL-60(TB) leukemia and in the test on SF-539 CNS was > 100 µM throughout.
Take `O=C(CC1(O)C(=O)Nc2c(Cl)cccc21)c1ccccc1` (stereo not given): the TGI in the test on EKVX NSCLC, in the test on HCT-15 colon, in the test with HL-60(TB) leukemia, in the test on M14 melanoma and in the test on SNB-75 CNS was > 100 µM each time.
Take `CN(C)c1ccc(/C=C/C(=O)c2ccccc2)cc1Br`: the TGI in the test with EKVX NSCLC is > 100 µM; in the test with HCT-15 colon it was 54.7 µM; in the test on M14 melanoma it was 27.3 µM; with SNB-75 CNS, 45.7 µM.

Values taken from PubChem BioAssay (NCI).
